These results are taken from PubChem BioAssay (NCI).

Each structure is given as a SMILES string. Values joined by “and” are separate entries in the source; they are usually repeats but may differ in a detail not shown here. Equal entries are not always repeated.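 Five compound concentrations were applied to cells in 96-well plates for 48 hours; endpoints were derived by simple linear interpolation of the resulting dose-response curve. GI50 is the concentration that inhibits growth by half. Definition used: TGI = concentration required for complete inhibition of growth.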 Where a SMILES comes first, the peptide text is derived from it. [ ]: non-standard residue; d: D form. pGlu = O=C1CC[CH](C(=O)O)N1

What all share (test): NCI anticancer screen, dose series, 48 h
In experiment [1] the test system is ACHN renal.
Experiment [2] has as its system U251 CNS.
In experiment [3] the test system is KM12 colon.
In experiment [4] the test system is OVCAR-4 ovarian.
For experiment [5], the system named is MDA-MB-435.
Experiment [6] concerns UACC-62 melanoma.
Experiment [7] concerns EKVX NSCLC.
The subject of experiment [8] is SNB-19 CNS.
The subject of experiment [9] is NCI-H226 lung.
For experiment [10], the system named is HOP-92 NSCLC.

Consider `COc1nc2ccc(CNc3ccc(C(=O)O)cc3)cc2nc1OC`, for which the TGI in experiment [1], in [2], in experiment [3], in [4], in experiment [5] and in experiment [6] was > 10 µM each time. Further, the TGI in experiment [7], in [8] and in experiment [9] was > 10 µM throughout.
`CC(NC(=O)C(Cc1cnc[nH]1)NC(=O)C1CCC(=O)N1)C(N)=O` (stereo not drawn) ([pGlu]-His-Ala-NH2; configuration not given here): the TGI in experiment [1], in experiment [2], in experiment [10], in [3], in experiment [5] and in experiment [6] was > 100 µM in each case. Also, the TGI in experiment [7], in experiment [8] and in [9] was > 100 µM each time.
Regarding `CCCCCCCC(=O)OCC(C[As](=O)(O)O)OC(=O)CCCCCCC` (stereo not given), the TGI in [1] is 30.6 µM; in experiment [2], 28.2 µM; in experiment [10] it was 25.4 µM; in experiment [4] it was 34 µM; in [6], 27 µM; in experiment [7] it was 33.8 µM. Moreover, the figures for the TGI in [8] and in [9] were 28.2 µM and 37.5 µM, respectively.
Regarding `N#Cc1ccc(Nc2cnc3ccc(N)cc3n2)cc1`, the TGI in experiment [1], in experiment [2], in experiment [10], in [3], in experiment [4] and in experiment [6] was > 100 µM throughout. For the same compound, the TGI in experiment [7], in experiment [8] and in [9] was > 100 µM each time.
As to `C=C1C(=O)O[C@@H]2OC3(C)CCC4C(C)CCC1C42OO3` (stereo not given in full), the GI50 was 8.18 µM in [2], 2.54 µM in [10], 2.66 µM in [3] and 12.6 µM in experiment [8]. The TGI is 21.2 µM and 16.8 µM in [2]; 6.5 µM and 4.48 µM in experiment [10]; 9.02 µM and 16.4 µM in [3]; 32.4 µM and 26 µM in experiment [4]; 6.86 µM and 5.17 µM in [6]; 24.7 µM in experiment [7]. Besides, the TGI was 26.5 µM and 27.9 µM in experiment [8]; 27.2 µM and 24.2 µM in experiment [9].
As for `O=C1C2=C(CCCCC2)C2CCCCC12O` (stereo not given), the TGI in [1], in experiment [2], in [10], in [3], in experiment [6] and in experiment [7] was > 100 µM throughout. Besides, the TGI in experiment [8] and in experiment [9] was > 100 µM throughout.
With `Cc1c(O)c(=O)ccn1CCc1c[nH]c2ccccc12`, the TGI was 23.5 µM in [1]; > 100 µM in [2]; 46.5 µM in [10]; > 100 µM in experiment [3]; > 100 µM in experiment [5]; 91.7 µM in experiment [7]. The TGI in [8] is > 100 µM.
In the case of `C/C(=N\NC(=O)c1cccnc1)c1cccc(/C(C)=N/NC(=O)c2cccnc2)n1.CC(=O)[O-].CC(=O)[O-].[Zn+2]`, the TGI in experiment [1] is > 68 µM; in experiment [2], > 100 µM; in experiment [10], 6.47 µM; in experiment [3], > 100 µM; in [4], > 100 µM; in [6] it was 10.7 µM. The TGI in experiment [7] is > 100 µM; in [8], > 100 µM; in experiment [9] it was 27.2 µM. Besides, the GI50 in experiment [10] was 1.55 µM.
In the case of `CCCC(=O)Nc1cc(/C=C/C(=O)N2CC(CCl)c3c2cc([N+](=O)[O-])c2ccccc32)n(C)c1` (stereo not given), the TGI is > 100 µM in experiment [1]; > 100 µM in [2]; > 100 µM in [10]; > 82.6 µM in [3]; > 100 µM in experiment [4]; > 100 µM in [5]. Moreover, the TGI in experiment [6], in experiment [8] and in experiment [9] was > 100 µM in each case.
`CN1CCN(/C(N)=C(\C#N)C(=O)Nc2ccccc2)CC1`: the TGI in [1], in experiment [2], in experiment [10], in [3], in [5] and in [6] was > 100 µM throughout. For the same compound, the TGI in experiment [7], in experiment [8] and in experiment [9] was > 100 µM throughout.
In the case of `CC(C)=CCCC1(Sc2ccccc2)C(=O)OCC1C=C(C)C` (stereo not given), the TGI was > 100 µM in experiment [1]; > 100 µM in [2]; > 100 µM in experiment [3]; > 100 µM in [4]; > 100 µM in experiment [5]; 79.7 µM in experiment [7]. Moreover, the TGI in [8] is > 100 µM; in [9] it was 73.7 µM.
Consider `CC1CC(=O)Nc2ccc(N=NN(C)C)cc2N1C=O` (stereo not given), for which the TGI in [1], in experiment [2], in experiment [3], in [4], in experiment [5] and in experiment [6] was > 100 µM each time. Further, the TGI in experiment [7], in experiment [8] and in [9] was > 100 µM in each case.
For the compound `COC(=O)c1c(O)ccc2c1c1c(n2Cc2ccccn2)C(=O)c2ccccc2C1=O`, the TGI in experiment [1] was 58.1 µM; in experiment [2], > 100 µM; in [10], > 100 µM; in [3], > 100 µM; in experiment [5], > 100 µM; in experiment [6], > 100 µM. Also, the TGI in experiment [7], in experiment [8] and in [9] was > 100 µM throughout.
Regarding `O=C(Cc1ccccc1)N=Nc1c(O)[nH]c2ccccc12`, the TGI in experiment [1], in [2], in experiment [3], in [4], in [5] and in [6] was > 100 µM in each case. Moreover, the TGI in experiment [7], in [8] and in [9] was > 100 µM throughout.
